In patent US8536216B2, “Compositions based on aminoacids” (Professional Dietetics S.R.L., priority 2000, dated 2013):
Read-outs that look alike come from different tables or passages of the source.

Tests used:
[1] = human, in vivo
[2] = Amino acids plasma modifications induced by acute ingestion of the mixture
[3] = tested on: athletes; experiment: Comparative study in athletes: bench press, squat Romano, maximal power on braked bicycle ergometer; format: in vivo, human
From the text: The effects on energy balance of the an amino acids mixture according to the invention as above indicated were the subject of a comparative study with creatine, on a weight ratio (w/w), or with no treatment, on a large group of volunteers submitted to a rigid protocol of alimentation and training.

[4] = 15' after acute ingestion of the mixture according to the invention
[5] = 30' after acute ingestion of the mixture according to the invention
[6] = 60' after acute ingestion of the mixture according to the invention

Structure (SMILES)	Amino acid plasma level ([1]; 15 min)	Amino acid plasma level ([1]; 30 min)	Amino acid plasma level ([1]; 60 min)	Amino acid plasma level [2, 4]	Amino acid plasma level [2, 5]	Amino acid plasma level [2, 6]	Watt/Kg max (maximal power productive performance on a braked bicycle ergometer) ([3]; after one month of treatment and training, mixture 24 g/d, creatine 25 g/d)	Performances over basal and no treatment group ([3]; one month treatment and training)
N[C@@H](CCC(=O)O)C(=O)O [Glutamate]	–	–	–	563 ± 69	606 ± 32	502 ± 43	–	–
CN(CC(=O)O)C(=N)N [creatine]	–	–	–	–	–	–	9.8 ± 0.6 watt/kg max	significant improvements of performances
N[C@@H](CCC(=O)O)C(=O)O [Glutamic acid]	–	–	–	42 ± 6	44 ± 7	41 ± 5	–	–
CSCC[C@H](N)C(=O)O [Methionine]	30 ± 6	32 ± 9	27 ± 4	–	–	–	–	–
CC(C)C[C@H](N)C(=O)O [Leucine]	68 ± 16	109 ± 19	71 ± 9	–	–	–	–	–
N[C@@H](CS)C(=O)O [Cysteine]	54 ± 6	61 ± 8	49 ± 7	–	–	–	–	–
CC(C)[C@H](N)C(=O)O [Valine]	256 ± 19	294 ± 32	249 ± 26	–	–	–	–	–

Now from value to molecule, other results behind:

Amino acid plasma level ([1]; 15 min)	Amino acid plasma level ([1]; 30 min)	Amino acid plasma level ([1]; 60 min)	Amino acid plasma level [2, 4]	Amino acid plasma level [2, 5]	Amino acid plasma level [2, 6]	Structure (SMILES)	Watt/Kg max (maximal power productive performance on a braked bicycle ergometer) ([3]; after one month of treatment and training, mixture 24 g/d, creatine 25 g/d)	Performances over basal and no treatment group ([3]; one month treatment and training)
156 ± 24	162 ± 31	147 ± 32	–	–	–	CC[C@H](C)[C@H](N)C(=O)O [Isoleucine]	–	–
85 ± 15	97 ± 13	82 ± 16	–	–	–	N=C(N)NCCC[C@H](N)C(=O)O [Arginine]	–	–
121 ± 15	137 ± 21	120 ± 16	–	–	–	C[C@@H](O)[C@H](N)C(=O)O [Threonine]	–	–
182 ± 17	194 ± 26	179 ± 18	–	–	–	NCCCC[C@H](N)C(=O)O [Lysine]	–	–
62 ± 9	65 ± 14	59 ± 7	–	–	–	N[C@@H](Cc1ccc(O)cc1)C(=O)O [Tyrosine]	–	–
56 ± 9	61 ± 10	55 ± 7	–	–	–	N[C@@H](Cc1ccccc1)C(=O)O [Phenylalanine]	–	–
